From patent US8883801B2, “Substituted pyrazolo[1,5-a]pyrimidines as mTOR inhibitors” (Merck Sharp & Dohme Corp., priority 2010, dated 2014) come the findings set out here.

Like-named read-outs stand apart in the source and are kept apart here.

Broadly, the IC50 is the concentration at which inhibition is half-maximal.

Assay [1] relates to mTORC2 activity: phosphorylated AKT Ser473 (pAKT S473) in PC3 cells. In words: mTOR target engagement assay, immunofluorescent cell-based, mTORC2 readout. To be noted: Homo sapiens, PC-3, 1.5 h, 90 min treatment. On the procedure: The target engagement of mTOR kinase inhibitors was evaluated using an immunofluorescent cell-based assay. In this assay, inhibition of mTORC1 activity was measured by the reduction in the level of phosphorylated 4E-BP1Thr37/46 (p4E-BP1 Thr37/46), and inhibition of mTORC2 activity was measured by the reduction of phosphorylated AKTSer473 (pAKT S473).
PC3 cells (prostate tumor cell-line that contains a mutation in the tumor suppressor PTEN, that promotes the phosphorylation and activation of AKT and 4E-BP1) were used in the immunofluorescence assay. PC3 cells were seeded on 384 well plates (black clear bottom, Matrix #4332) overnight. PC3 cells were then treated with 40 μl of the serially diluted test compounds (in 5% fetal bovine serum, F12 medium containing 0.25% DMSO) for ninety minutes at 37° C. The test compound solution was removed, and the plates were washed gently two times with 25 μl phosphate buffered saline (PBS). The cells were fixed by adding 25 μl of Prefer reagent (from Anatech LTD, Cat#414, a glyoxal fixative for fixing proteins within a cell) for sixty minutes followed by three washes with PBS. 5% Goat serum in PBS/0.3% Triton was used to block non-specific binding (60 minutes).
The primary antibodies targeting pAKT S473 and p4E-BP1 Thr37/46 were diluted into PBS/0.3% Triton and incubated with the cells overnight at 4° C. The antibodies targeting pAKTS473 (Cat#4085, Cell signaling) and p4E-BP1 Thr37/46 (Cat#2855, Cell signaling) were used at a 1:100 dilution. Plates were washed three times with PBS/0.1% Tween 20 before adding the secondary antibody at a 1:200 dilution. (goat anti-rabbit containing a fluorescent label, Alexa Fluor 488, Cat#A11008, Invitrogen) in PBS/0.3% Triton for 60 minutes.
Finally, the plates were washed three times with PBS/0.1% Tween 20 and the fluorescent intensity was read using an Analyst HT from Molecular Devices. The fluorescent intensity values from the serially diluted compound treatment group were analyzed using the Xlfit 4 program ([…]) (Formula 205: Y=Bottom+(Top-Bottom)/(1+(IC50/X)^Hillslope) to generate the IC50 value. Where Top is the maximum signal without Compound (+DMSO only) and Bottom represents maximum inhibition. Y is the fluorescence at some compound concentration. The control used to determine the fluorescent intensities for 100% pAKT S473 or 100% phosphorylated p4E-BP1 Thr37/46 were measured from untreated wells that contained only DMSO, instead of test compound.

In assay [2] the target is human mTOR enzyme (Homo sapiens, UniProt P42345). Description: HTRF mTOR enzyme (kinase) assay. Format: biochemical. To be noted: 5 μM ATP, 0.2 μM GST-S6K, read-out: hMTOR IC50.
Sequence of human mTOR enzyme (P42345 1360-2549 limits assumed): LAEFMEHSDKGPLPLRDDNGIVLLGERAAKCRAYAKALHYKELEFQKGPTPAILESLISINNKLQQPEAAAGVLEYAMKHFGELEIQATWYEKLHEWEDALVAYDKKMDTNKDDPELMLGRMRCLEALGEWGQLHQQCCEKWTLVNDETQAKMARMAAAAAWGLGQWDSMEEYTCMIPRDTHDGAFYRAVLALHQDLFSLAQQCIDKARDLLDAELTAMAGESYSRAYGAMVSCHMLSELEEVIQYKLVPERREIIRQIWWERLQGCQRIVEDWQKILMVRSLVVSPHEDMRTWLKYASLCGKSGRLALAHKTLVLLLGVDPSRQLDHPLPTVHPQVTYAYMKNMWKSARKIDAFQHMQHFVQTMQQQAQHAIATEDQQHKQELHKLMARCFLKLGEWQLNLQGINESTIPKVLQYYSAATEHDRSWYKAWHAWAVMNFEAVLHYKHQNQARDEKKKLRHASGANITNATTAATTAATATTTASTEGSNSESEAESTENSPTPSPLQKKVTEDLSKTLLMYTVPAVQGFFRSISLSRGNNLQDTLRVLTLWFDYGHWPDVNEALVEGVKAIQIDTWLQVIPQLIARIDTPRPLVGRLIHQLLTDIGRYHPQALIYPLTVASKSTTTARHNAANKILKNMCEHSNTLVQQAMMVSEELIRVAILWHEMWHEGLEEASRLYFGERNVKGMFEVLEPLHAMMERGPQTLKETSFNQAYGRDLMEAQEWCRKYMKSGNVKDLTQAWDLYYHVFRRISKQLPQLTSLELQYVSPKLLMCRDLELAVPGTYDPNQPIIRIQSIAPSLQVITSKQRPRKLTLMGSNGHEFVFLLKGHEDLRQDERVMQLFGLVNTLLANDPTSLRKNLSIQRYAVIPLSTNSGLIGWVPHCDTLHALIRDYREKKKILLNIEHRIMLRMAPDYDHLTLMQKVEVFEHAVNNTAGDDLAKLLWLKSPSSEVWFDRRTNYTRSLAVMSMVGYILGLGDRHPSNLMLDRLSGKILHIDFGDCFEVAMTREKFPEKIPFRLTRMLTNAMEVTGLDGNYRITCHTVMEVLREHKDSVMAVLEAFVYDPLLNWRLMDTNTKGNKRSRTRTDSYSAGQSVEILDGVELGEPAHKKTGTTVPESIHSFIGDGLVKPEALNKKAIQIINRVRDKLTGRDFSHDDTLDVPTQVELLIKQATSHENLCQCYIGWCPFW

On to `CC(=O)c1c(C2CCC(CO)(CO)CC2)nc2c(-c3ccc(-c4ccccc4)nc3)cnn2c1N` [Compound 172, 1-(7-amino-5-(4,4-bis(hydroxymethyl)-cyclohexyl)-3-(6-phenylpyridin-3-yl)pyrazolo[1,5-a]pyrimidin-6-yl)ethanone], for which the IC50 in assay [1] (rated class) and in assay [2] (rated class) was 1 to 100 nM throughout.

For `COCCOC[C@]1(C(=O)O)CC[C@H](c2nc3c(-c4ccc(-c5ccccc5)nc4)cnn3c(N)c2Br)CC1` [Compound 11, (1R,4R)-4-(7-amino-6-bromo-3-(6-phenylpyridin-3-yl)pyrazolo[1,5-a]pyrimidin-5-yl)-1-((2-methoxyethoxy)methyl)cyclohexane-carboxylic acid], the IC50 in assay [1] (numeric value) came out at 2030 nM; in assay [2] (numeric value), 4.61 nM.

With `CC(=O)c1c(N)n2ncc(-c3ccc(-c4ccccc4)nc3)c2nc1[C@H]1CC[C@](F)(C(=O)O)CC1` [Compound 16, (1S,4S)-(6-acetyl-7-amino-3-(6-phenylpyridin-3-yl)pyrazolo[1,5-a]pyrimidin-5-yl)-1-fluorocyclohexane-carboxylic acid], the IC50 in assay [1] (rated class) fell in the range of 1000 to 2000 nM; in assay [2] (rated class), 1 to 100 nM.

As to `CO[C@]1(C(=O)O)CC[C@H](c2nc3c(-c4cnc5ccc(F)cc5c4)cnn3c(N)c2Br)CC1` [Compound 32, (1S,4S)-4-(7-amino-6-bromo-3-(6-fluoroquinolin-3-yl)pyrazolo[1,5-a]pyrimidin-5-yl)-1-methoxycyclohexane-carboxylic acid], the figures for the IC50 in assay [1] (rated class) and in assay [2] (rated class) were 100 to 1000 nM and 1 to 100 nM, respectively.

Consider `COCCO[C@]1(C(=O)O)CC[C@@H](c2nc3c(-c4ccc(-c5ccccc5)nc4)cnn3c(N)c2C(C)=O)CC1` [Compound 57, (1R,4R)-4-(6-acetyl-7-amino-3-(6-phenylpyridin-3-yl)pyrazolo[1,5-a]pyrimidin-5-yl)-1-(2-methoxyethoxy) cyclohexanecarboxylic acid], for which the IC50 in assay [1] (rated class) lay in the range of 100 to 1000 nM; in assay [2] (rated class) it was 1 to 100 nM.

With `CS[C@]1(C(=O)O)CC[C@H](c2nc3c(-c4cnn(-c5ccccc5)c4)cnn3c(N)c2Br)CC1` [Compound 9, (1S,4S)-4-(7-amino-6-bromo-3-(1-phenyl-1H-pyrazol-4-yl)pyrazolo[1,5-a]pyrimidin-5-yl)-1-(methylthio)-cyclohexane-carboxylic acid], the values for the IC50 in assay [1] (rated class) and in assay [2] (rated class) were 100 to 1000 nM and 1 to 100 nM, respectively.

Turning to `COC[C@]1(O)CC[C@@H](c2nc3c(-c4ccc(-c5ccccc5)nc4)cnn3c(N)c2Br)CC1` [Compound 164, (1S,4S)-4-(7-amino-6-bromo-3-(6-phenylpyridin-3-yl)pyrazolo[1,5-a]pyrimidin-5-yl)-1-(methoxymethyl)cyclohexanol], the 50% inhibitory concentration (IC50) in assay [1] (rated class) is 1000 to 2000 nM; in assay [2] (rated class), 1 to 100 nM.

`COCCO[C@]1(C(=O)NN)CC[C@@H](c2nc3c(-c4cnn(-c5ccccc5)c4)cnn3c(N)c2S(C)(=O)=O)CC1` [Compound 107, (1R,4R)-4-(7-amino-6-(methylsulfonyl)-3-(1-phenyl-1H-pyrazol-4-yl)pyrazolo[1,5-a]pyrimidin-5-yl)-1-(2-methoxyethoxy)-cyclohexane-carbohydrazide]: the IC50 fell in the range of 100 to 1000 nM in assay [1] (rated class) and 1 to 100 nM in assay [2] (rated class).

For the compound `COCC1(C(=O)O)CCC(c2nc3c(-c4ccc(-c5ccccc5)nc4)cnn3c(N)c2Br)CC1` (stereo not drawn) [Compound 5, 4-(7-amino-6-bromo-3-(6-phenylpyridin-3-yl)pyrazolo[1,5-a]pyrimidin-5-yl)-1-(methoxymethyl)-cyclohexane-carboxylic acid], the IC50 in assay [1] (rated class) was in the range of 100 to 1000 nM; in assay [2] (rated class) it was 1 to 100 nM.

For the compound `COCCO[C@]1(C(=O)O)CC[C@@H](c2nc3c(-c4ccc(-c5nccs5)nc4)cnn3c(N)c2C(C)=O)CC1` [Compound 60, (1R,4R)-4-(6-acetyl-7-amino-3-(6-(thiazol-2-yl)pyridin-3-yl)pyrazolo[1,5-a]pyrimidin-5-yl)-1-(2-methoxyethoxy) cyclohexanecarboxylic acid], the IC50 in assay [1] (rated class) lay in the range of 100 to 1000 nM; in assay [2] (rated class), 1 to 100 nM.

Turning to `COc1ccc(-c2ccc(-c3cnn4c(N)c(C(C)=O)c(C5CCC(O)(CO)CC5)nc34)cn2)cn1` (single isomer, unassigned) [Compound 146, 1-(7-amino-5-(4-hydroxy-4-(hydroxymethyl)-cyclohexyl)-3-(6′-methoxy-2,3′-bipyridin-5-yl)pyrazolo[1,5-a]pyrimidin-6-yl)ethanone], the IC50 in assay [1] (rated class) was 2000 to 5000 nM; in assay [2] (rated class), 1 to 100 nM.

For `COc1ccc(-c2ccc(-c3cnn4c(N)c(C(C)=O)c(C5CCC(CO)(OC)CC5)nc34)cn2)cn1` (stereo not drawn) [Compound 171, 1-(7-amino-5-(4-(hydroxymethyl)-4-methoxycyclohexyl)-3-(6′-methoxy-2,3′-bipyridin-5-yl)pyrazolo[1,5-a]pyrimidin-6-yl)ethanone], the IC50 in assay [1] (rated class) was 2000 to 5000 nM; in assay [2] (rated class), 1 to 100 nM.

Turning to `COCCOC1(CO)CCC(c2nc3c(-c4cnn(-c5ccccc5)c4)cnn3c(N)c2Br)CC1` (stereo not drawn) [Compound 83, (4-(7-amino-6-bromo-3-(1-phenyl-1H-pyrazol-4-yl)pyrazolo[1,5-a]pyrimidin-5-yl)-1-(2-methoxyethoxy)-cyclohexyl)methanol], the IC50 fell in the range of 1000 to 2000 nM in assay [1] (rated class) and 1 to 100 nM in assay [2] (rated class).

On to `CO[C@]1(C(=O)O)CC[C@@H](c2nc3c(-c4cnc5ccc(F)cc5c4)cnn3c(N)c2C(C)=O)CC1` [Compound 39, (1R,4R)-4-(6-acetyl-7-amino-3-(6-fluoroquinolin-3-yl)pyrazolo[1,5-a]pyrimidin-5-yl)-1-methoxycyclohexane-carboxylic acid], for which the IC50 in assay [1] (rated class) was 100 to 1000 nM; in assay [2] (rated class), 1 to 100 nM.

For the compound `COCC1(C(=O)O)CCC(c2nc3c(-c4cnn(-c5ccccc5)c4)cnn3c(N)c2Br)CC1` (stereo not drawn) [Compound 6, 4-(7-amino-6-bromo-3-(1-phenyl-1H-pyrazol-4-yl)pyrazolo[1,5-a]pyrimidin-5-yl)-1-(methoxymethyl)-cyclohexane-carboxylic acid], the IC50 in assay [1] (rated class) lay in the range of 1000 to 2000 nM; in assay [2] (rated class), 1 to 100 nM.

For the compound `COCCOC[C@]1(CO)CC[C@H](c2nc3c(-c4ccc(-c5ccccc5)nc4)cnn3c(N)c2Br)CC1` [Compound 168, ((1S,4S)-4-(7-amino-6-bromo-3-(6-phenylpyridin-3-yl)pyrazolo[1,5-a]pyrimidin-5-yl)-1-((2-methoxyethoxy)-methyl)cyclohexyl)-methanol], the IC50 in assay [1] (rated class) fell in the range of 1000 to 2000 nM; in assay [2] (rated class), 1 to 100 nM.

Regarding `COC[C@]1(C(=O)O)CC[C@@H](c2nc3c(-c4cnc5ccc(F)cc5c4)cnn3c(N)c2C(C)=O)CC1` [Compound 23, (1S,4S)-4-(6-acetyl-7-amino-3-(6-fluoroquinolin-3-yl)pyrazolo[1,5-a]pyrimidin-5-yl)-1-(methoxymethyl)-cyclohexane-carboxylic acid], the IC50 in assay [1] (rated class) fell in the range of 2000 to 5000 nM; in assay [2] (rated class), 1 to 100 nM.

Regarding `CO[C@]1(CO)CC[C@H](c2nc3c(-c4ccc(-c5ccccc5)nc4)cnn3c(N)c2C(C)=O)CC1` [Compound 85, 1-(7-amino-5-((1S,4S)-4-(hydroxymethyl)-4-methoxycyclohexyl)-3-(6-phenylpyridin-3-yl)pyrazolo[1,5-a]pyrimidin-6-yl)ethanone], the IC50 in assay [1] (rated class) was 100 to 1000 nM; in assay [2] (rated class), 1 to 100 nM.

Consider `COCCOC[C@]1(C(=O)O)CC[C@@H](c2nc3c(-c4ccc(-c5ccccc5)nc4)cnn3c(N)c2Br)CC1` [Compound 12, (1S,4S)-4-(7-amino-6-bromo-3-(6-phenylpyridin-3-yl)pyrazolo[1,5-a]pyrimidin-5-yl)-1-((2-methoxyethoxy)methyl)cyclohexane-carboxylic acid], for which the figures for the IC50 in assay [1] (rated class) and in assay [2] (rated class) were 2000 to 5000 nM and 1 to 100 nM, respectively.

As to `CC(=O)c1c(C2CCC(O)(CO)CC2)nc2c(-c3ccc(-c4ccccc4)nc3)cnn2c1N` (stereo not drawn) [Compound 138, 1-(7-amino-5-(4-hydroxy-4-(hydroxymethyl)cyclohexyl)-3-(6-phenylpyridin-3-yl)pyrazolo[1,5-a]pyrimidin-6-yl)ethanone], the values for the IC50 in assay [1] (rated class) and in assay [2] (rated class) were 100 to 1000 nM and 1 to 100 nM, respectively.

In the case of `Nc1c(Br)c([C@H]2CC[C@](F)(C(=O)O)CC2)nc2c(-c3ccc(-c4ccccc4)nc3)cnn12` [Compound 3, (1S,4S)-4-(7-amino-6-bromo-3-(6-phenylpyridin-3-yl)pyrazolo[1,5-a]pyrimidin-5-yl)-1-fluorocyclohexane-carboxylic acid], the IC50 in assay [1] (rated class) was in the range of 1000 to 2000 nM; in assay [2] (rated class), 1 to 100 nM.
